From patent US7749996B2, “Heterotricyclic metalloprotease inhibitors” (Alantos Pharmaceutical Holdings, Inc., priority 2006, dated 2010)

Experiments:
Format in all cases: biochemical
activated MMP-8 enzyme = molecular target: T1, activated MMP-8 enzyme (Homo sapiens, UniProt P22894); experiment: Assay for determining MMP-8 inhibition (fluorescent substrate); conditions: Table 2, activity group
T1 construct: purchased Calbiochem 444229
Procedure: (§1) The typical assay for MMP-8 activity is carried out in assay buffer comprised of 50 mM Tris, pH 7.5, 150 mM NaCl, 5 mM CaCl2 and 0.05% Brij-35. Different concentrations of tested compounds are prepared in assay buffer in 50 μL aliquots. […] The mixture of enzyme and compound in assay buffer is thoroughly mixed and incubated for 10 min at 37° C. […] The time-dependent increase in fluorescence is measured at the 320 nm excitation and 390 nm emission by an automatic plate multireader at 37° C. The IC50 values are calculated from the initial reaction rates.

[1] = molecular target: T2, catalytic domain of MMP-13 enzyme (Homo sapiens, UniProt P45452); experiment: Assay for determining MMP-13 inhibition (fluorescent substrate); conditions: Table 1, activity group
T2 construct: stock solution of catalytic domain of MMP-13 enzyme (produced by Alantos or commercially available from Invitek (Berlin), Cat.# 30100812); purchased Invitek (Berlin) 30100812
Procedure: as §1, with “MMP-13” for “MMP-8”, “room temperature.” for “37° C.”, “by” for “by an”, “multireader.” for “multireader at 37° C.”

[2] = molecular target: T3, catalytic domain of MMP-3 enzyme (Homo sapiens, UniProt P08254); experiment: Assay for determining MMP-3 inhibition (NFF-3 fluorescent substrate); conditions: Table 3, activity group
T3 construct: stock solution of the catalytic domain of MMP-3 enzyme (Biomol, Cat. No. SE-109); purchased Biomol SE-109
T3 sequence (P08254 100-272 limits assumed): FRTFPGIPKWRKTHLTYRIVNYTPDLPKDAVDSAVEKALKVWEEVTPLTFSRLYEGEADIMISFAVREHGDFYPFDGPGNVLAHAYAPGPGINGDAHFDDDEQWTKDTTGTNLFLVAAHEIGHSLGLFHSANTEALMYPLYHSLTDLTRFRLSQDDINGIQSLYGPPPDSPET
Procedure: as §1, with “MMP-3” for “MMP-8”, “MES,” for “Tris,”, “6.0, 10” for “7.5, 150 mM NaCl, 5”, “room temperature.” for “37° C.”, “330” for “320”, “multireader.” for “multireader at 37° C.”

T1 sequence (P22894 101-467): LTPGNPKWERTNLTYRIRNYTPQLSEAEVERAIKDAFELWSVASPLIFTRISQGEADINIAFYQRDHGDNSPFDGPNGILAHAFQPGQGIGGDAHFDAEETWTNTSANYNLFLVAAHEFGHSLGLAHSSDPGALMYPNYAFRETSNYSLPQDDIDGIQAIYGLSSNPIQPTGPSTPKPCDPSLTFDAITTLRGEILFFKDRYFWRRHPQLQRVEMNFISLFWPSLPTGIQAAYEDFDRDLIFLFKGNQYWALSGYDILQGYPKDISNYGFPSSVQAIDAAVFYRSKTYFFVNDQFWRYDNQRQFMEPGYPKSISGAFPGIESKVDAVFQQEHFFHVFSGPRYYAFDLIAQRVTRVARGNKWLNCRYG

| Structure (SMILES) | IC50 (activated MMP-8 enzyme) [nM] | IC50 [1] [nM] | IC50 [2] [nM] |
| --- | --- | --- | --- |
| CC1c2c(sc3nc(C(=O)NCc4ccc5c(c4)NC(=O)CO5)[nH]c(=O)c23)CS1(=O)=O (centres unmarked) [22/2] | 250 to 20000 | < 100 | 250 to 20000 |
| O=C(O)CC1CCCc2sc3nc(C(=O)NCc4ccc5c(c4)NC(=O)CO5)[nH]c(=O)c3c21 (centres unmarked) [Example 3] | 250 to 20000 | < 100 | 250 to 20000 |
| O=C(O)CNC(=O)CC1CCCc2sc3nc(C(=O)NCc4ccc5c(c4)NC(=O)CO5)[nH]c(=O)c3c21 (centres unmarked) [Example 15] | < 250 | < 100 | 250 to 20000 |
| O=C1COc2ccc(CNC(=O)c3nc4sc5c(c4c(=O)[nH]3)CC(C(=O)O)C5)cc2N1 (centres unmarked) [4/15] | < 250 | < 100 | 250 to 20000 |
| Cc1snc2sc3c(=O)[nH]c(C(=O)NCc4ccc5c(c4)NC(=O)CO5)nc3c12 [Example 39/7] | 250 to 20000 | 100 to 20000 | 250 to 20000 |
| O=C1COc2ccc(CNC(=O)c3nc4sc5c(c4c(=O)[nH]3)C(C(=O)NCc3ccccc3)CC5)cc2N1 (centres unmarked) [2/167] | < 250 | < 100 | – |
| Nc1c(NCc2cccc(CNC(=O)c3nc4sc5c(c4c(=O)[nH]3)CCC5)c2)c(=O)c1=O [2/413] | < 250 | < 100 | – |
| O=C1COc2ccc(CNC(=O)c3nc4sc5c(c4c(=O)[nH]3)CN(C(=O)CC(F)(F)F)C5)cc2N1 [Example 42/1] | 250 to 20000 | – | 250 to 20000 |
| CCOC(=O)C1CCc2sc3nc(C(=O)NCc4ccc5c(c4)CN(c4c(N)c(=O)c4=O)CC5)[nH]c(=O)c3c21 (centres unmarked) [2/114] | < 250 | < 100 | – |
| CCOC(=O)C1Cc2sc3nc(C(=O)NCc4ccc5c(c4)NC(=O)CO5)[nH]c(=O)c3c2C1 (centres unmarked) [2/210] | – | < 100 | 250 to 20000 |
| COC(=O)c1cccc(CNC(=O)c2nc3sc4c(c3c(=O)[nH]2)CCC4)c1 [2/316] | 250 to 20000 | < 100 | – |
| CC(C)(C)OC(=O)CNC(=O)C1CCc2sc3nc(C(=O)NCc4ccc5c(c4)NC(=O)CO5)[nH]c(=O)c3c21 (centres unmarked) [2/224] | < 250 | < 100 | – |
| NC(=O)C1CCc2sc3nc(C(=O)NCc4ccc5c(c4)NC(=O)CO5)[nH]c(=O)c3c21 (centres unmarked) [Example 2/166] | < 250 | < 100 | – |
| Nc1c(N2CCc3ccc(CNC(=O)c4nc5sc6c(c5c(=O)[nH]4)CCS(=O)(=O)C6)cc3C2)c(=O)c1=O [2/104] | < 250 | – | < 250 |
| O=C1COc2ccc(CNC(=O)c3nc4sc5c(c4c(=O)[nH]3)CCS5)cc2N1 [2/121] | < 250 | < 100 | – |
| O=C1COc2ccc(CNC(=O)c3nc4sc5c(c4c(=O)[nH]3)CCC5)cc2N1 [Example 1] | < 250 | < 100 | – |
| O=C1COc2ccc(CNC(=O)C3NC(=O)c4c(sc5c4CCCN(CC4CCCCO4)C5=O)N3)cc2N1 (centres unmarked) [2/188] | < 250 | < 100 | 250 to 20000 |
| O=C1COc2ccc(CNC(=O)c3nc4sc5c(c4c(=O)[nH]3)CN(c3ncccn3)C5)cc2N1 [Example 43] | – | < 100 | < 250 |
| N#CC1CCc2sc3nc(C(=O)NCc4ccc5c(c4)NC(=O)CO5)[nH]c(=O)c3c21 (centres unmarked) [Example 19] | < 250 | < 100 | 250 to 20000 |
| Nc1c(NCc2cc(CNC(=O)c3nc4sc5c(c4c(=O)[nH]3)CCC5)ccc2F)c(=O)c1=O [2/417] | 250 to 20000 | < 100 | – |
| COc1ccc2c(c1)CCc1sc3nc(C(=O)NCc4ccc5c(c4)NC(=O)CO5)[nH]c(=O)c3c1-2 [2/107] | < 250 | < 100 | 250 to 20000 |
| NC(=O)C1Cc2sc3nc(C(=O)NCc4ccc5c(c4)CN(c4c(N)c(=O)c4=O)CC5)[nH]c(=O)c3c2C1 (centres unmarked) [2/232] | – | – | 250 to 20000 |
| NC(=O)CC1CCCc2sc3nc(C(=O)NCc4ccc5c(c4)NC(=O)CO5)[nH]c(=O)c3c21 (centres unmarked) [2/240] | – | – | 250 to 20000 |
| C#CCNC(=O)CC1CCCc2sc3nc(C(=O)NCc4ccc5c(c4)NC(=O)CO5)[nH]c(=O)c3c21 (centres unmarked) [2/251] | < 250 | < 100 | – |
| O=C(NCc1cccc(F)c1)c1nc2sc3c(c2c(=O)[nH]1)CCC3 [2/292] | 250 to 20000 | 100 to 20000 | – |
| CN(C)C(=O)C1CCc2sc3nc(C(=O)NCc4ccc5c(c4)NC(=O)CO5)[nH]c(=O)c3c21 (centres unmarked) [2/173] | 250 to 20000 | < 100 | – |
| CS(=O)(=O)N1CCc2ccc(CNC(=O)c3nc4sc5c(c4c(=O)[nH]3)CCC5)cc2C1 [2/538] | 250 to 20000 | 100 to 20000 | – |

| Structure (SMILES) | IC50 (activated MMP-8 enzyme) [nM] | IC50 [1] [nM] | IC50 [2] [nM] |
| --- | --- | --- | --- |
| O=C1COc2ccc(CNC(=O)c3nc4ccc5c(c4c(=O)[nH]3)CCC5)cc2N1 [2/245] | – | < 100 | 250 to 20000 |
| O=C1COc2ccc(CNC(=O)c3nc4sc5ccccc5c4c(=O)[nH]3)cc2N1 [2/25] | < 250 | < 100 | – |
| CC1SCc2sc3nc(C(=O)NCc4ccc5c(c4)NC(=O)CO5)[nH]c(=O)c3c21 (centres unmarked) [2/131] | < 250 | < 100 | – |
| O=C1COc2ccc(CNC(=O)c3nc4sc5c(c4c(=O)[nH]3)CNC5)cc2N1 [Example 41] | 250 to 20000 | < 100 | – |
| COc1ccc(CNC(=O)c2nc3sc4c(c3c(=O)[nH]2)CCC4)cc1 [2/384] | 250 to 20000 | 100 to 20000 | – |
| O=C1COc2ccc(CNC(=O)c3nc4ccc5c(c4c(=O)[nH]3)OCO5)cc2N1 [Example 28] | – | < 100 | < 250 |
| O=C(NCc1ccc2c(c1)OCCO2)c1nc2sc3c(c2c(=O)[nH]1)CCC3 [2/428] | 250 to 20000 | 100 to 20000 | – |
| O=C1COc2ccc(CNC(=O)c3nc4sc5c(c4c(=O)[nH]3)CCCCC5)cc2N1 [2/117] | < 250 | < 100 | – |
| NC(=O)C1CCCCc2sc3nc(C(=O)NCc4ccc5c(c4)NC(=O)CO5)[nH]c(=O)c3c21 (centres unmarked) [2/267] | < 250 | < 100 | – |
| CS(=O)(=O)c1ccc(CNC(=O)C2CCc3sc4nc(C(=O)NCc5ccc6c(c5)NC(=O)CO6)[nH]c(=O)c4c32)cc1 (centres unmarked) [2/170] | < 250 | < 100 | – |
| CC(C)CNC(=O)C1Cc2sc3nc(C(=O)NCc4ccc5c(c4)NC(=O)CO5)[nH]c(=O)c3c2C1 (centres unmarked) [2/231] | – | < 100 | 250 to 20000 |
| Nc1c(N2CCc3ccc(CNC(=O)c4nc5sc6c(c5c(=O)[nH]4)CCS6)cc3C2)c(=O)c1=O [2/122] | < 250 | < 100 | – |
| CCOC(=O)C1CCc2sc3nc(C(=O)NCc4ccc5c(c4)NC(=O)CO5)[nH]c(=O)c3c2C1 (centres unmarked) [2/208] | – | < 100 | 250 to 20000 |
| CC(=O)N1CCc2c(sc3nc(C(=O)NCc4ccc5c(c4)NC(=O)CO5)[nH]c(=O)c23)C1 [2/94] | < 250 | < 100 | – |
| O=C1COc2ccc(CNC(=O)c3nc4sc5c(c4c(=O)[nH]3)CCOC5)cc2N1 [2/152] | < 250 | < 100 | – |
| Nc1c(N2CCc3ccc(CNC(=O)c4nc5sc6c(c5c(=O)[nH]4)CC(C(=O)O)C6)cc3C2)c(=O)c1=O (centres unmarked) [4/14] | < 250 | < 100 | – |
| NC(=O)CNC(=O)C1CCc2sc3nc(C(=O)NCc4ccc5c(c4)NC(=O)CO5)[nH]c(=O)c3c21 (centres unmarked) [2/255] | < 250 | < 100 | – |
| CC(NC(=O)C1CCc2sc3nc(C(=O)NCc4ccc5c(c4)NC(=O)CO5)[nH]c(=O)c3c21)c1ccccc1 (centres unmarked) [2/175] | < 250 | < 100 | – |
| CCOC(=O)C1CCc2sc3nc(C(=O)NCc4ccc5c(c4)NC(=O)CO5)[nH]c(=O)c3c21 (centres unmarked) [2/113] | < 250 | < 100 | – |
| O=C(NCc1ccc(F)c(Cl)c1)c1nc2sc3c(c2c(=O)[nH]1)CCC3 [2/433] | 250 to 20000 | 100 to 20000 | – |
| Cc1cc(CNC(=O)C2CCc3sc4nc(C(=O)NCc5ccc6c(c5)NC(=O)CO6)[nH]c(=O)c4c32)ccc1F (centres unmarked) [2/176] | < 250 | < 100 | – |
| Nc1c(N2CCc3ccc(CNC(=O)c4nc5sc6c(c5c(=O)[nH]4)CCCCC6)cc3C2)c(=O)c1=O [2/118] | < 250 | < 100 | – |
| COc1ccc2c(c1)CCc1sc3nc(C(=O)NCc4ccc5c(c4)CN(c4c(N)c(=O)c4=O)CC5)[nH]c(=O)c3c1-2 [2/108] | – | < 100 | 250 to 20000 |
| O=C1COc2ccc(CNC(=O)c3nc4sc5c(c4c(=O)[nH]3)CCCC5)cc2N1 [2/33] | < 250 | < 100 | – |
| Nc1c(N2CCc3ccc(CNC(=O)c4nc5sc6c(c5c(=O)[nH]4)CCCCCC6)cc3C2)c(=O)c1=O [2/126] | < 250 | < 100 | – |
| Nc1c(N2CCc3ccc(CNC(=O)c4nc5sc6c(c5c(=O)[nH]4)CCOC6)cc3C2)c(=O)c1=O [2/153] | < 250 | < 100 | – |
| CCOC(=O)CC1CCCc2sc3nc(C(=O)NCc4ccc5c(c4)NC(=O)CO5)[nH]c(=O)c3c21 (centres unmarked) [2/236] | – | – | 250 to 20000 |
